Data reported in PubChem BioAssay (NCI).
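Grown in 96-well plates, cells were treated for 48 hours with each compound at five concentrations. Insufficient inhibition: endpoint recorded as highest concentration tested. Abbreviation: GI50, concentration required for 50% inhibition of growth. At the TGI there is no net growth.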

How the values were obtained:
Assay in all cases: NCI-60 cell line screen, 48 h
DU-145 prostate = test system: DU-145 prostate
A498 renal = test system: A498 renal
MOLT-4 leukemia = test system: MOLT-4 leukemia
OVCAR-4 ovarian = test system: OVCAR-4 ovarian
U251 CNS = test system: U251 CNS
UACC-257 melanoma = test system: UACC-257 melanoma
NCI-H522 lung = test system: NCI-H522 lung
CAKI-1 renal = test system: CAKI-1 renal
HL-60(TB) leukemia = test system: HL-60(TB) leukemia
SN12C renal = test system: SN12C renal
HCC-2998 colon = test system: HCC-2998 colon
RPMI-8226 leukemia = test system: RPMI-8226 leukemia
COLO 205 colon = test system: COLO 205 colon
UACC-62 melanoma = test system: UACC-62 melanoma
TK-10 renal = test system: TK-10 renal
SF-295 CNS = test system: SF-295 CNS
SK-OV-3 ovarian = test system: SK-OV-3 ovarian
NCI-H460 lung = test system: NCI-H460 lung
MDA-MB-435 = test system: MDA-MB-435
OVCAR-8 ovarian = test system: OVCAR-8 ovarian
CCRF-CEM leukemia = test system: CCRF-CEM leukemia
SK-MEL-2 melanoma = test system: SK-MEL-2 melanoma
BT-549 breast = test system: BT-549 breast
SW-620 colon = test system: SW-620 colon
NCI-H226 lung = test system: NCI-H226 lung
PC-3 prostate = test system: PC-3 prostate
HCT-116 colon = test system: HCT-116 colon
NCI-H23 lung = test system: NCI-H23 lung
M14 melanoma = test system: M14 melanoma
NCI/ADR-RES ovarian = test system: NCI/ADR-RES ovarian
IGROV1 ovarian = test system: IGROV1 ovarian
LOX IMVI melanoma = test system: LOX IMVI melanoma
HCT-15 colon = test system: HCT-15 colon
SNB-19 CNS = test system: SNB-19 CNS
HOP-62 NSCLC = test system: HOP-62 NSCLC
HOP-92 NSCLC = test system: HOP-92 NSCLC
SK-MEL-5 melanoma = test system: SK-MEL-5 melanoma
SK-MEL-28 melanoma = test system: SK-MEL-28 melanoma
HS 578T breast = test system: HS 578T breast
OVCAR-5 ovarian = test system: OVCAR-5 ovarian
OVCAR-3 ovarian = test system: OVCAR-3 ovarian
SNB-75 CNS = test system: SNB-75 CNS
T-47D breast = test system: T-47D breast
MCF7 breast = test system: MCF7 breast
KM12 colon = test system: KM12 colon
786-0 renal = test system: 786-0 renal
SF-268 CNS = test system: SF-268 CNS
MDA-MB-231 breast = test system: MDA-MB-231 breast
SR leukemia = test system: SR leukemia
A549 NSCLC = test system: A549 NSCLC
UO-31 renal = test system: UO-31 renal
RXF 393 renal = test system: RXF 393 renal
ACHN renal = test system: ACHN renal
SF-539 CNS = test system: SF-539 CNS
HT29 colon = test system: HT29 colon
K-562 leukemia = test system: K-562 leukemia
EKVX NSCLC = test system: EKVX NSCLC

Work on `Cc1cccc(NC(=O)c2sc3nc4c(cc3c2N)CCCC4)c1` yielded a GI50 (DU-145 prostate) of 13.4 µM, a TGI (DU-145 prostate) of over 100 µM and a GI50 (A498 renal) of 5.87 µM. The TGI (A498 renal) was 66.4 µM, the GI50 (MOLT-4 leukemia) was 12 µM and the TGI (MOLT-4 leukemia) was over 100 µM. The GI50 (OVCAR-4 ovarian) was 3.22 µM, the TGI (OVCAR-4 ovarian) was 39.1 µM and the GI50 (U251 CNS) was 8.33 µM. It also gave a TGI (U251 CNS) of 45.2 µM, a GI50 (UACC-257 melanoma) of over 100 µM and a TGI (UACC-257 melanoma) of over 100 µM. For the same molecule, the GI50 (NCI-H522 lung) was 16.4 µM, the TGI (NCI-H522 lung) was over 100 µM and the GI50 (CAKI-1 renal) was 6.7 µM. It also gave a TGI (CAKI-1 renal) of over 100 µM, a GI50 (HL-60(TB) leukemia) of 2.36 µM and a TGI (HL-60(TB) leukemia) of 17.7 µM. For the same molecule, the GI50 (SN12C renal) was 24 µM, the TGI (SN12C renal) was over 100 µM and the GI50 (HCC-2998 colon) was 45.4 µM. The TGI (HCC-2998 colon) was over 100 µM, the GI50 (RPMI-8226 leukemia) was 5.74 µM and the TGI (RPMI-8226 leukemia) was over 100 µM. It also gave a GI50 (COLO 205 colon) of 4.96 µM, a TGI (COLO 205 colon) of over 100 µM and a GI50 (UACC-62 melanoma) of 2.19 µM. It also gave a TGI (UACC-62 melanoma) of over 100 µM, a GI50 (TK-10 renal) of 13.7 µM and a TGI (TK-10 renal) of 90.6 µM. The GI50 (SF-295 CNS) was 3.51 µM, the TGI (SF-295 CNS) was 23.8 µM and the GI50 (SK-OV-3 ovarian) was 12.9 µM. It also gave a TGI (SK-OV-3 ovarian) of 63.9 µM, a GI50 (NCI-H460 lung) of 5.25 µM and a TGI (NCI-H460 lung) of over 100 µM. For the same molecule, the GI50 (MDA-MB-435) was 0.305 µM, the TGI (MDA-MB-435) was 2 µM and the GI50 (OVCAR-8 ovarian) was 20.9 µM. For the same molecule, the TGI (OVCAR-8 ovarian) was over 100 µM, the GI50 (CCRF-CEM leukemia) was 4.46 µM and the TGI (CCRF-CEM leukemia) was over 100 µM. The GI50 (SK-MEL-2 melanoma) was 8.99 µM, the TGI (SK-MEL-2 melanoma) was 52.5 µM and the GI50 (BT-549 breast) was 7.56 µM. It also gave a TGI (BT-549 breast) of 62 µM, a GI50 (SW-620 colon) of 3.42 µM and a TGI (SW-620 colon) of over 100 µM. For the same molecule, the GI50 (NCI-H226 lung) was 9.68 µM, the TGI (NCI-H226 lung) was 73.5 µM and the GI50 (PC-3 prostate) was 16.2 µM. For the same molecule, the TGI (PC-3 prostate) was over 100 µM, the GI50 (HCT-116 colon) was 2.59 µM and the TGI (HCT-116 colon) was over 100 µM. For the same molecule, the GI50 (NCI-H23 lung) was 27.8 µM, the TGI (NCI-H23 lung) was over 100 µM and the GI50 (M14 melanoma) was 2 µM. It also gave a TGI (M14 melanoma) of over 100 µM, a GI50 (NCI/ADR-RES ovarian) of 4.59 µM and a TGI (NCI/ADR-RES ovarian) of over 100 µM. It also gave a GI50 (IGROV1 ovarian) of 17.7 µM, a TGI (IGROV1 ovarian) of over 100 µM and a GI50 (LOX IMVI melanoma) of 8.52 µM. It also gave a TGI (LOX IMVI melanoma) of over 100 µM, a GI50 (HCT-15 colon) of 0.845 µM and a TGI (HCT-15 colon) of over 100 µM. It also gave a GI50 (SNB-19 CNS) of 6.92 µM, a TGI (SNB-19 CNS) of 68 µM and a GI50 (HOP-62 NSCLC) of 4.97 µM. The TGI (HOP-62 NSCLC) was 36.8 µM, the GI50 (HOP-92 NSCLC) was 9 µM and the TGI (HOP-92 NSCLC) was 32 µM. It also gave a GI50 (SK-MEL-5 melanoma) of 2.3 µM, a TGI (SK-MEL-5 melanoma) of 47.3 µM and a GI50 (SK-MEL-28 melanoma) of 9.23 µM. For the same molecule, the TGI (SK-MEL-28 melanoma) was over 100 µM, the GI50 (HS 578T breast) was 9.92 µM and the TGI (HS 578T breast) was over 100 µM. The GI50 (OVCAR-5 ovarian) was over 100 µM, the TGI (OVCAR-5 ovarian) was over 100 µM and the GI50 (OVCAR-3 ovarian) was 4.84 µM. The TGI (OVCAR-3 ovarian) was over 100 µM, the GI50 (SNB-75 CNS) was 3.84 µM and the TGI (SNB-75 CNS) was 18.9 µM. It also gave a GI50 (T-47D breast) of 10.2 µM, a TGI (T-47D breast) of over 100 µM and a GI50 (MCF7 breast) of 1.15 µM. The TGI (MCF7 breast) was over 100 µM, the GI50 (KM12 colon) was 3.32 µM and the TGI (KM12 colon) was over 100 µM. The GI50 (786-0 renal) was 4.13 µM, the TGI (786-0 renal) was 32.4 µM and the GI50 (SF-268 CNS) was 10.7 µM. The TGI (SF-268 CNS) was over 100 µM, the GI50 (MDA-MB-231 breast) was 14.8 µM and the TGI (MDA-MB-231 breast) was 52.2 µM. The GI50 (SR leukemia) was 0.549 µM, the TGI (SR leukemia) was 11.2 µM and the GI50 (A549 NSCLC) was 8.33 µM. The TGI (A549 NSCLC) was over 100 µM, the GI50 (UO-31 renal) was 25.2 µM and the TGI (UO-31 renal) was over 100 µM. For the same molecule, the GI50 (RXF 393 renal) was 4.71 µM, the TGI (RXF 393 renal) was 23.2 µM and the GI50 (ACHN renal) was 10.5 µM. It also gave a TGI (ACHN renal) of over 100 µM, a GI50 (SF-539 CNS) of 4.74 µM and a TGI (SF-539 CNS) of 60.5 µM.
Molecule `O=c1nc(Oc2c(F)c(F)c(F)c(F)c2F)ccn1C1OC(CO)C(O)C1O` (configuration not stated) has a TGI (DU-145 prostate) of over 100 µM, a TGI (A498 renal) of over 100 µM and a TGI (MOLT-4 leukemia) of over 100 µM. It also gave a TGI (OVCAR-4 ovarian) of over 100 µM, a TGI (U251 CNS) of over 100 µM and a TGI (HT29 colon) of over 100 µM. For the same molecule, the TGI (UACC-257 melanoma) was over 100 µM, the TGI (K-562 leukemia) was over 100 µM and the TGI (NCI-H522 lung) was over 100 µM. For the same molecule, the TGI (CAKI-1 renal) was over 100 µM, the TGI (SN12C renal) was over 100 µM and the TGI (HCC-2998 colon) was over 100 µM. The TGI (RPMI-8226 leukemia) was over 100 µM, the TGI (COLO 205 colon) was over 100 µM and the TGI (UACC-62 melanoma) was over 100 µM. It also gave a TGI (TK-10 renal) of over 100 µM, a TGI (SF-295 CNS) of over 100 µM and a TGI (SK-OV-3 ovarian) of over 100 µM. The TGI (MDA-MB-435) was over 100 µM, the TGI (OVCAR-8 ovarian) was over 100 µM and the TGI (CCRF-CEM leukemia) was over 100 µM. The TGI (SK-MEL-2 melanoma) was over 100 µM, the TGI (BT-549 breast) was over 100 µM and the TGI (SW-620 colon) was over 100 µM. For the same molecule, the TGI (PC-3 prostate) was over 100 µM, the TGI (HCT-116 colon) was over 100 µM and the TGI (NCI-H23 lung) was over 100 µM. It also gave a TGI (M14 melanoma) of over 100 µM, a TGI (NCI/ADR-RES ovarian) of over 100 µM and a TGI (IGROV1 ovarian) of over 100 µM. It also gave a TGI (LOX IMVI melanoma) of over 100 µM, a TGI (HCT-15 colon) of over 100 µM and a TGI (SNB-19 CNS) of over 100 µM. It also gave a TGI (HOP-62 NSCLC) of over 100 µM, a TGI (HOP-92 NSCLC) of over 100 µM and a TGI (SK-MEL-5 melanoma) of over 100 µM. For the same molecule, the TGI (SK-MEL-28 melanoma) was over 100 µM, the TGI (HS 578T breast) was over 100 µM and the TGI (OVCAR-5 ovarian) was over 100 µM. It also gave a TGI (OVCAR-3 ovarian) of over 100 µM, a TGI (SNB-75 CNS) of over 100 µM and a TGI (T-47D breast) of over 100 µM. For the same molecule, the TGI (MCF7 breast) was over 100 µM, the TGI (EKVX NSCLC) was over 100 µM and the TGI (KM12 colon) was over 100 µM. For the same molecule, the TGI (786-0 renal) was over 100 µM, the TGI (SF-268 CNS) was over 100 µM and the TGI (MDA-MB-231 breast) was over 100 µM. For the same molecule, the TGI (SR leukemia) was over 100 µM, the TGI (A549 NSCLC) was over 100 µM and the TGI (UO-31 renal) was over 100 µM. The TGI (RXF 393 renal) was over 100 µM, the TGI (ACHN renal) was over 100 µM and the TGI (SF-539 CNS) was over 100 µM.
